Measured values taken from US10034886B2, “GLP-1 receptor modulators” (Celgene International II SÀRL, priority 2014, dated 2018).
Read-outs that look alike come from different tables or passages of the source.

Biological target: T1, GLP-1R (Homo sapiens, UniProt P43220)
T1 construct: host or cells: GLP-1R CRE-bla CHO-K1 cells
Experiment: EC20 GLP-1(9-36) PAM cAMP assay: dose response of compound in the presence of fixed concentration of GLP-1(9-36)
Assay type: cell-based
Settings: GLP-1R CRE-bla CHO-K1 cells, read-out: EC20 GLP-1(9-36) PAM EC50
Method in brief: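 GLP-1R CRE-bla CHO-K1 cells treated 30 min at 37 °C with 12-point compound dose response plus fixed EC20 GLP-1(9-36), with IBMX, in HBSS/HEPES/0.1% BSA pH 7.4. Total cAMP measured by luminescent detection against standard curve; EC50 and Emax from non-linear regression.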

[1] = dose response of compound in presence of fixed concentration of GLP-1(9-36)
[2] = compound dose response with fixed concentration of GLP-1(9-36)

T1 sequence (P43220 24-463): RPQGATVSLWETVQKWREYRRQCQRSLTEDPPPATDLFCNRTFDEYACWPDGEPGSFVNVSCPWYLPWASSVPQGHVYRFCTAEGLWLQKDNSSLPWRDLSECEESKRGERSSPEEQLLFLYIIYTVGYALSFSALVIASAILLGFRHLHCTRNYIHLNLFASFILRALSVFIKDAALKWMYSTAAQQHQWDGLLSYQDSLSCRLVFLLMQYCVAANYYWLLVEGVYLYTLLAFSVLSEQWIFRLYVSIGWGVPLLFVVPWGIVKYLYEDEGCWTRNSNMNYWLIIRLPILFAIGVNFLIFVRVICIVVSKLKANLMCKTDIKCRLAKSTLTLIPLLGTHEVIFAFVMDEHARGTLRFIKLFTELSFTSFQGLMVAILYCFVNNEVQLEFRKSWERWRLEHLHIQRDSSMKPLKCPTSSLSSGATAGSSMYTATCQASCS
T1 sequence (P01275 100-127 partner limits assumed): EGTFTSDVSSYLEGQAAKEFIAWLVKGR

SMILES | EC50 [1] [µM] | EC50 [2] [µM]
CCCCCCCOc1ccc(-c2cnc(-c3ccc(C[C@H](NC(=O)c4ccc(CCCC)cc4)C(=O)N[C@H](C)C(=O)O)cc3)nc2)cc1 [Compound 820] | 2.5 to 5 | –
CCCCCCCOc1ccc(-c2cnc(-c3ccc(C[C@H](NC(=O)c4ccc(C5CC5)s4)C(=O)NC(C(=O)O)C(O)c4ccccc4)cc3)nc2)cc1 (stereo partly drawn) [Compound 956] | 2.5 to 5 | –
CCCCCCCOc1ccc(-c2cnc(-c3ccc(C[C@H](NC(=O)c4ccc(C(C)(C)C)s4)C(=O)N4CC(C(=O)O)C(C)(C)C4)cc3)nc2)cc1 (stereo partly drawn) [Compound 638] | 2.5 to 5 | –
CCCCCCCOc1ccc(-c2cnc(-c3ccc(C[C@H](NC(=O)c4ccc(C(C)(C)C)s4)C(=O)NC4CCCC(C(=O)O)C4)cc3)nc2)cc1 (stereo partly drawn) [Compound 535] | 5 to 10 | –
CC(C)(C)c1ccc(C(=O)N[C@@H](Cc2ccc(-c3ncc(-c4ccc(OC5CCCC5)cc4)cn3)cc2)C(=O)NC(C(=O)O)C(O)c2ccccc2)s1 (stereo partly drawn) [Compound 929] | 5 to 10 | –
CCCCCCCOc1ccc(-c2cnc(-c3ccc(C[C@H](NC(=O)c4ccc(C5(C)CC5)cc4)C(=O)N4CCC[C@H]4C(=O)O)cc3)nc2)cc1 [Compound 1083] | 0.8 to 2.5 | –
CC[C@H]1CC[C@H](c2ccc(-c3cnc(-c4ccc(C[C@H](NC(=O)c5ccc(C(C)(C)C)s5)C(=O)N5C6CCC5C(C(=O)O)C6)cc4)nc3)cc2)CC1 (stereo partly drawn) [Compound 1321] | – | 0.8 to 2.5
CCCCCCCOc1ccc(-c2cnc(-c3ccc(C[C@H](NC(=O)c4ccc(C(C)(C)C)s4)C(=O)N[C@H](C(=O)O)[C@@H](C)c4ccccc4)cc3)nc2)cc1 [Compound 909] | 2.5 to 5 | –
CC(C)(C)OC(=O)N1CCC(C2CCN(c3cnc(-c4ccc(C[C@H](NC(=O)c5ccc(C(C)(C)C)s5)C(=O)N5CC(C(=O)O)C5)cc4)nc3)CC2)CC1 [Compound 1415] | – | 5 to 10
COCCc1ccc(OCc2ccc(-c3cnc(-c4ccc(C[C@H](NC(=O)c5ccc(C(C)(C)C)s5)C(=O)N[C@H](C)C(=O)O)cc4)nc3)cc2)cc1 [Compound 1053] | 2.5 to 5 | –
CCCc1ccc(-c2ccc(-c3cnc(-c4ccc(C[C@H](NC(=O)c5ccc(CCC)s5)C(=O)N5CC(C(=O)O)C5)cc4)nc3)c(F)c2)cc1 [Compound 1409] | – | < 0.8
CCCCCCCOc1ccc(-c2cnc(-c3ccc(C[C@H](NC(=O)c4ccc(C(C)(C)C)s4)C(=O)NC4CC(C(=O)O)C4)cc3)nc2)cc1 (stereo partly drawn) [Compound 602] | < 0.8 | –
CCCCCCCOc1ccc(-c2cnc(-c3ccc(C[C@H](NC(=O)c4cnc(C(C)(C)C)nc4)C(=O)N4CCC[C@H]4C(=O)O)cc3)nc2)cc1 [Compound 1078] | 2.5 to 5 | –
CCCCCCOc1ccc(-c2cnc(-c3ccc(C[C@H](NC(=O)c4ccc(C(C)(C)C)cc4)C(=O)NCCC(=O)O)cc3)nc2)cc1 [Compound 490] | 0.8 to 2.5 | –
CCCCCCCOc1ccc(-c2cnc(-c3ccc(C[C@H](NC(=O)c4ccc(C(C)(C)C)cc4)C(=O)N[C@@H](CC(=O)NC4CC4)C(=O)O)cc3)nc2)cc1 [Compound 479] | < 0.8 | –
CCCCOc1c(OC)ccc(-c2cnc(-c3ccc(C[C@H](NC(=O)c4ccc(C(C)(C)C)s4)C(=O)N[C@H](C)C(=O)O)cc3)nc2)c1F [Compound 1022] | 2.5 to 5 | –
CC(C)Oc1ccc(-c2cnc(-c3ccc(C[C@H](NC(=O)c4ccc(C(C)(C)C)s4)C(=O)N4CC(C(=O)O)C4)cc3)nc2)cc1 [Compound 782] | 0.8 to 2.5 | –
C[C@@H](NC(=O)[C@H](Cc1ccc(-c2ncc(-c3ccc4c(ccn4S(=O)(=O)c4ccccc4)c3)cn2)cc1)NC(=O)c1ccc(C(C)(C)C)s1)C(=O)O [Compound 1010] | 2.5 to 5 | –
CCC[C@H]1CC[C@H](C2CCN(c3cnc(-c4ccc(C[C@H](NC(=O)c5ccc(C)cc5)C(=O)N5CC(C(=O)O)C5)cc4)nc3)CC2)CC1 [Compound 1528] | – | 0.8 to 2.5
CCC[C@H]1CC[C@H](c2ccc(-c3cnc(-c4ccc(C[C@H](NC(=O)c5ccc(C(C)(C)C)s5)C(=O)N[C@H](C)C(=O)O)cc4)nc3)cc2)CC1 [Compound 1265] | – | < 0.8
CCC[C@H]1CC[C@H](C2CCN(c3cnc(-c4ccc(C[C@H](NC(=O)c5ccc(C(C)(C)C)s5)C(=O)N5CCC[C@H]5C(=O)O)cc4)nc3)CC2)CC1 [Compound 1419] | – | < 0.8
CCCCCCCOc1ccc(-c2cnc(-c3ccc(C[C@H](NC(=O)c4ccc(CC)cn4)C(=O)N4CC(C(=O)O)C4)cc3)nc2)cc1 [Compound 1106] | 2.5 to 5 | –
CCCCCCCOc1ccc(-c2cnc(-c3ccc(C[C@H](NC(=O)c4ccc(C(C)(C)C)s4)C(=O)N[C@@H](CC)C(=O)O)cc3)nc2)cc1 [Compound 401] | < 0.8 | –
CCCCCCCOc1ccc(-c2cnc(-c3ccc(C[C@H](NC(=O)c4ccc(N5CCCC5)cc4)C(=O)N[C@@H](C)C(=O)O)cc3)nc2)cc1 [Compound 870] | 0.8 to 2.5 | –

SMILES | EC50 [1] [µM] | EC50 [2] [µM]
CCCCCCCOc1ccc(-c2cnc(-c3ccc(C[C@H](NC(=O)c4ccc(CCC)s4)C(=O)N4CC[C@H](C(=O)O)C4)cc3)nc2)cc1 [Compound 864] | 0.8 to 2.5 | –
CCCCCCCOc1ccc(-c2cnc(-c3ccc(C[C@H](NC(=O)c4ccc(C(C)(C)C)s4)C(=O)NCC4(O)CCN(C)C4)cc3)nc2)cc1 (stereo partly drawn) [Compound 894] | 5 to 10 | –
CCCCCCCOc1ccc(-c2cnc(-c3ccc(C[C@H](NC(=O)c4ccc(C(C)(C)C)s4)C(=O)O)cc3)nc2)nc1 [Compound 1062, (S)-2-(5-(tert-butyl)thiophene-2-carboxamido)-3-(4-(5-(5-(heptyloxy)pyridin-2-yl)pyrimidin-2-yl)phenyl)propanoic acid] | 0.8 to 2.5 | –
CC(C)(C)c1ccc(C(=O)N[C@@H](Cc2ccc(-c3ncc(-c4ccc(-c5cccc(C#N)c5)cc4F)cn3)cc2)C(=O)N2CC(C(=O)O)C2)s1 [Compound 1202] | – | 5 to 10
CCCCCCOc1ccc(-c2cnc(-c3ccc(C[C@H](NC(=O)c4ccc(C(C)(C)C)s4)C(=O)N[C@H](C)C(=O)O)cc3)nc2)cc1 [Compound 735] | 0.8 to 2.5 | –
CC(C)(C)COc1ccc(-c2cnc(-c3ccc(C[C@H](NC(=O)c4ccc(C(C)(C)C)s4)C(=O)N4CC(C(=O)O)C4)cc3)nc2)cc1 [Compound 775] | < 0.8 | –
C[C@@H](NC(=O)[C@H](Cc1ccc(-c2ncc(-c3ccc(Oc4ccccc4)cc3)cn2)cc1)NC(=O)c1ccc(C(C)(C)C)s1)C(=O)O [Compound 1000] | 5 to 10 | –
CCCCCCCOc1ccc(-c2ncc(-c3ccc(C[C@H](NC(=O)c4ccc(C(C)(C)C)cc4)C(=O)O)cc3)nn2)cc1 [Compound 275] | 0.8 to 2.5 | –
CCC[C@H]1CC[C@H](N2CCN(c3cnc(-c4ccc(CC(NC(=O)c5ccc(C(C)(C)C)s5)C(=O)N5CC(C(=O)O)C5)cc4)nc3)C(=O)C2)CC1 (stereo partly drawn) [Compound 1420] | – | 2.5 to 5
CC(C)(C)c1ccc(C(=O)N[C@@H](Cc2ccc(-c3ncc(-c4ccc(OCCC5CCCCC5)cc4)cn3)cc2)C(=O)N2CC[C@H](C(=O)O)C2)s1 [Compound 774] | 0.8 to 2.5 | –
CCCCCCCOc1ccc(-c2cnc(-c3ccc(C[C@H](NC(=O)c4ccc(C(C)(C)C)s4)C(=O)N4CC(C(=O)NS(=O)(=O)CC(=O)OC)C4)cc3)nc2)cc1 [Compound 654, methyl (S)-2-(N-(1-(2-(5-(tert-butyl)thiophene-2-carboxamido)-3-(4-(5-(4-(heptyloxy)phenyl)pyrimidin-2-yl)phenyl)propanoyl)azetidine-3-carbonyl)sulfamoyl)acetate] | < 0.8 | –
CCCCCCCOc1ccc(-c2cnc(-c3ccc(C[C@H](NC(=O)/C=C/C(C)(C)C)C(=O)NC(C(=O)O)C(O)c4ccccc4)cc3)nc2)cc1 (stereo partly drawn) [Compound 955] | 5 to 10 | –
CC(C)CCCCOc1ccc(-c2cnc(-c3ccc(C[C@H](NC(=O)c4ccc(C(C)(C)C)s4)C(=O)N4CC[C@H](C(=O)O)C4)cc3)nc2)cc1 [Compound 772] | < 0.8 | –
CC(C)(C)c1ccc(C(=O)N[C@@H](Cc2ccc(-c3ncc(-c4ccc(OCC(F)(F)F)cc4)cn3)cc2)C(=O)NCCC(=O)O)cc1 [Compound 682] | 2.5 to 5 | –
CC(C)c1ccc(-c2ccc(-c3cnc(-c4ccc(C[C@H](NC(=O)c5ccc(C(C)(C)C)s5)C(=O)N5CC(C(=O)O)C5)cc4)nc3)c(F)c2)cc1 [Compound 1220] | – | < 0.8
CCC/C=C/CCOc1ccc(-c2cnc(-c3ccc(C[C@H](NC(=O)c4ccc(C(C)(C)C)cc4)C(=O)NCCC(=O)O)cc3)nc2)cc1 [Compound 716] | 0.8 to 2.5 | –
CC(=O)c1cccc(-c2ccc(-c3cnc(-c4ccc(C[C@H](NC(=O)c5ccc(C(C)(C)C)s5)C(=O)N5CC(C(=O)O)C5)cc4)nc3)c(F)c2)c1 [Compound 1193] | < 0.8 | –
CCCCCCCOc1ccc(-c2cnc(-c3ccc(C[C@H](NC(=O)c4ccc(C(C)(C)C)s4)C(=O)N[C@@H](CC(=O)Nc4nnn[nH]4)C(=O)O)cc3)nc2)cc1 [Compound 522] | 0.8 to 2.5 | –
CCCCCC(=O)c1ccc(-c2cnc(-c3ccc(C[C@H](NC(=O)c4ccc(C(C)(C)C)cc4)C(=O)NCCC(=O)O)cc3)nc2)cc1 [Compound 690] | 2.5 to 5 | –
CCc1ccc(C(=O)N[C@@H](Cc2ccc(-c3ncc(-c4ccc(OCCCC(C)C)cc4)cn3)cc2)C(=O)N2CC(C(=O)O)C2)s1 [Compound 1241] | – | 0.8 to 2.5
CCC[C@H]1CC[C@H](C2CCN(c3cnc(-c4ccc(C[C@H](NC(=O)c5cnc(C(C)(C)C)s5)C(=O)N5CC(C(=O)O)C5)cc4)nc3)CC2)CC1 [Compound 1537] | – | < 0.8
CC(C)CCCOc1ccc(-c2cnc(-c3ccc(C[C@H](NC(=O)c4ccc(OC(C)C)cc4)C(=O)N4CC(C(=O)O)C4)cc3)nc2)cc1 [Compound 1238] | – | 0.8 to 2.5
CCCCCCCOc1ccc(-c2cnc(-c3ccc(C[C@H](NC(=O)c4ccc(C(C)(C)C)s4)C(=O)NC(C(=O)O)C(O)c4ccc(C)cc4)cc3)nc2)cc1 (stereo partly drawn) [Compound 900] | 0.8 to 2.5 | –
C[C@@H](NC(=O)[C@H](Cc1ccc(-c2ncc(-c3ccc4c(c3)C(C)(C)c3ccccc3-4)cn2)cc1)NC(=O)c1ccc(C(C)(C)C)s1)C(=O)O [Compound 1304] | – | 0.8 to 2.5
